Measured values from PMC7915902, “Preclinical Evaluation of [^18F]FACH in Healthy Mice and Piglets: An ^18F-Labeled Ligand for Imaging of Monocarboxylate Transporters with PET” (International Journal of Molecular Sciences, 2021).
Read-outs that look alike come from different tables or passages of the source.

Tests used:
[1] = test system: MCT4; design: method as in PMID 31017677; conditions: L-[14C]lactate uptake, MDA-MB231 cells; read-out: IC50 towards MCT4; cited from earlier work
[2] = test system: MCT1; design: method as in PMID 31017677; conditions: L-[14C]lactate uptake, rat brain endothelial cells; read-out: IC50 towards MCT1; cited from earlier work
[3] = test system: MCT1; design: method as in PMID 8779821; conditions: cited from earlier work
[4] = Extended single dose toxicity study in rats; assay type: in vivo, rat
Procedure: The extended single dose toxicity studies of FACH in male (n = 15) and female (n = 15) outbred Wistar rats were performed in the Biological Testing Laboratory (BTL) in Russia (Study Number 680/19). The test item FACH-Na was administered by single bolus i.v. injection at doses of 6.2, 62 and 620 μg/kg body weight (bw). Mortality, clinical pathology parameters (hematology and serum chemistry), organ weights and microscopic tissue parameters were investigated 24 h and two weeks after treatment.

[5] = test system: MCTs; assay: Dynamic PET/MRI in mice with pre-treatment; assay type: in vivo, mouse; conditions: for AUC0–60 min gall bladder / AUC0–60 min kidney cortex / AUC0–60 min liver / AUC0–60 min small intestine / AUC0–60 min whole blood: mouse, in vivo
Procedure: (§1) The biodistribution of [^18F]FACH in mice was assessed by small animal PET (Nanoscan, Mediso, Budapest, Hungary) with dynamic 60 min emission recordings, followed by T1 weighted GRE MR (TR = 15.0 ms, TE = 2.4 ms, FA = 25°) imaging for anatomical correlations and attenuation correction. The mice (n = 20) weighing 32.2 ± 2.9 g were anaesthetised with 2% isoflurane in 60% oxygen, and placed on a thermostatically heated animal bed. The animals then received i.v. injections of 0.9% saline (control), reference compound (10 mg/kg), or α-CCA-Na (25 mg/kg) ten min prior or 20 min after (displacement studies) [^18F]FACH administration (2.3–8.6 MBq, 0.5–11.2 nmol/kg). List mode PET data were binned as a series of attenuation-corrected sinogram frames (12 × 10 s, 6 × 30 s, 5 × 60 s and 10 × 300 s) and were reconstructed by Ordered Subset Expectation Maximization (OSEM3D) with four iterations, six subsets and a voxel size of 0.4 mm³ (Nucline v2.01, Mediso).
(§2) The analysis of reconstructed datasets was performed with PMOD software (v4.103, PMOD Technologies LLC, Zurich, Switzerland).
(§3) Data are shown in mean ± standard deviation (SD). Group differences were tested by Student’s t-test, with p < 0.05 designated as significant. Area Under the Curves (AUCs) and corresponding 95% confidence intervals (CI95%s) were calculated with GraphPad Prism (v.8.2) following the assumptions described by Gagnon et al..

[6] = test system: MCTs; assay: Autoradiographic competition study in mouse kidney cryosections; assay type: binding; conditions: 300 nM competitor, 1 nM [18F]FACH
Procedure: Cryosections from the mouse kidney (10 µm) were cut on a microtome (Microm HM560, Thermo Scientific Microm, Fisher Scientific GmbH, Schwerte, Germany), mounted on glass slides (SuperFrost, Thermo Scientific Menzel, Fisher Scientific GmbH), dried for two hours at room temperature, and stored at −25 °C. Before the binding experiment, the tissue slices were dried under a stream of cold air, pre-incubated with PBS (pH 7.4) for 15 min at room temperature and dried again before incubation with PBS containing [^18F]FACH (1.2 nM) without (total binding) and with different concentrations of FACH-Na (10 µM–0.1 nM; homologous competition) for 60 min. Specific binding to MCTs of [^18F]FACH in cryosections of mouse kidney was determined after co-incubation of 1 nM [^18F]FACH with vehicle or 300 nM α-CCa-Na or 300 nM reference compound (homologous competition).
The incubation was terminated by washing with ice-cold buffer (50 mM TRIS-HCl, pH 7.4) twice for two minutes followed by dipping in ice-cold demineralized water for 5 s and drying under a stream of cold air. […] KD and Bmax values were calculated by the simplified Cheng and Prusoff equation (http://www3.uah.es/farmamol/Public/GraphPad/radiolig.htm, accessed on 5 February 2021):(1) KD=Ki=IC50−Radioligand (M) (2) Bmax=Top−Bottom/Radioligand (M)/(KD+Radioligand (M))

[7] = test system: MCTs; assay type: in vivo, piglet
Procedure: The piglets (n = 6) were inititally anaesthetised with intramuscular injections of stresnil and ursotamin, and anaesthesia was maintained with intravenous ursotamin and midazolam, as required. The hematocrit was measured in an ear vein blood sample collected just prior to imaging. Either saline (n = 3) or 25 mg/kg α-CCA-Na (n = 3) in saline was administrated ten min before i.v. administration of [^18F]FACH (261–327 MBq, corresponding to 218–852 pmol/kg) via an ear vein. Imaging was performed with a simultaneous hybrid PET/MR system (mMR Biograph; Siemens, Erlangen, Germany) equipped with dedicated phased-array surface. PET data were reconstructed into a 128 × 128 matrix (voxel size: 1.40 × 1.40 × 2.03 mm^3) using the built-in OSEM3D algorithm with eight iterations, 21 subsets, and a 3-mm Gaussian filter. The attenuation and decay corrected dynamic sequence consisted of 32 frames as follows: 1 × 15, 11 × 30, 1 × 45, 5 × 60, 1 × 90, 5 × 120, 1 × 180, 4 × 240, 1 × 300, 2 × 360 s, whereas activity concentrations in VOIs are represented in units of SUV or percentage of injected dose (%/ID). After completing the dynamic PET recording, piglets were euthanized with an i.v. overdose of T61 (Intervet Deutschland GmbH, Unterschleißheim, Germany) and tissues were sampled for radio-metabolism studies in selected animals.
as §2, §3

[8] = in vivo
[9] = test system: MCTs; assay: PET displacement study in mice; assay type: in vivo, mouse
Procedure: as §1, §2

[10] = test system: MCTs; assay: Compartmental kinetic modelling of PET data in mice; assay type: in vivo, mouse; conditions: kidney cortex, 2-TCM, [18F]FACH after α-CCA-Na pre-treatment
Procedure: (§4) Table 4 includes the results of 1-tissue-compartment kinetic modelling (1-TCM) of [^18F]FACH in the kidney cortex and the liver of the control and pre-treated mouse groups (α-CCA-Na and reference compound). […] The BPND was estimated as the ratio of [VT(control)/VT(pre-treatment)] − 1.
(§5) Kinetic analysis of reconstructed datasets was performed with PMOD software. First, image derived arterial input functions (IDIFs) were obtained from the left ventricle in mice and from an artery close to the kidney in piglet studies. IDIFs were corrected for partial volume effects, plasma fraction from hematocrit values (individually determined for each piglet directly before PET imaging; for mice set to 0.51 according to CD-1 Mouse Hematology sheet from Charles River Laboratories, 2011) and radio-metabolites (measured for piglets, and set to zero for mice). Tri-exponential metabolite-corrected fitted input functions were used for one and two tissue compartment modelling (1-TCM/2-TCM) of time activity curves (TACs) in tissue volumes of interest (VOIs). For both species the specific blood volume was set to 0.15 mL g^−1 in the kidney cortex and 0.128 mL g^−1 in the liver, according to published values.

[11] = Metabolism and renal excretion of [18F]FACH in piglets (radio-HPLC, graphical analysis); conditions: piglet pre-treated with α-CCA-Na, 60 min p.i.
[12] = test system: MCTs; assay: Compartmental kinetic modelling of PET data in piglets; assay type: in vivo, piglet; conditions: living piglets, α-CCA-Na dose
Procedure: as §4, §5

[13] = mice, reference compound 10 mg/kg pre-treatment

CCCN(CCCF)c1ccc(/C=C(\C#N)C(=O)O)c(OC)c1 [FACH]
IC50 [1]: 6.5 nM
IC50 [2]: 11 nM

N#CC(=Cc1ccc(O)cc1)C(=O)O [α-CCA, α-cyano-4-hydroxycinnamic acid]
selectivity for MCT1 (MCT1/4) compared to the other subtypes [3]: ten-fold higher selectivity

CCCN(CCCF)c1ccc(/C=C(\C#N)C(=O)[O-])c(OC)c1.[Na+] [FACH-Na]
no-observed-adverse-effect-level (NOAEL) ([4]; Wistar rats, single bolus i.v.): 620 µg FACH-Na/kg bodyweight
NOAEL relative to the equivalent to the human dose (0.1 µg/kg) ([4]; rats): approximately 1000 fold
reduction of [18F]FACH AUC0–60min in kidney cortex vs control [5, 13]: 79%
reduction of [18F]FACH AUC0–60min in liver vs control [5, 13]: 44%
AUC0–60 min gall bladder ([5]; 10 mg/kg): 1388 SUV min
AUC0–60 min kidney cortex ([5]; 10 mg/kg): 62 SUV min
AUC0–60 min liver ([5]; 10 mg/kg): 250 SUV min
AUC0–60 min small intestine ([5]; 10 mg/kg): 405 SUV min
AUC0–60 min whole blood ([5]; 10 mg/kg): 125 SUV min
displacement of [18F]FACH [6]: 41%

N#CC(=Cc1ccc(O)cc1)C(=O)[O-].[Na+] [α-CCA-Na, reference compound]
AUC0–60 min gall bladder ([7]; in vivo, 25 mg/kg): 4453 SUV min
AUC0–60 min kidney cortex ([7]; in vivo, 25 mg/kg): 178 SUV min
AUC0–60 min kidney medulla ([7]; in vivo, 25 mg/kg): 1264 SUV min
AUC0–60 min liver ([7]; in vivo, 25 mg/kg): 286 SUV min
AUC0–60 min plasma ([7]; in vivo, 25 mg/kg): 40 SUV min
AUC0–60 min vertebrae ([7]; in vivo, 25 mg/kg): 100 SUV min
kidney uptake blocked by α-CCA-Na pre-treatment ([7]; piglets): about 60%
reduction of [18F]FACH AUC0–60min in kidney medulla ([7]; piglets, α-CCA-Na 25 mg/kg pre-treatment): 50%
AUC0–60 min gall bladder ([5]; 25 mg/kg): 486 SUV min
AUC0–60 min kidney cortex ([5]; 25 mg/kg): 153 SUV min
AUC0–60 min liver ([5]; 25 mg/kg): 417 SUV min
AUC0–60 min small intestine ([5]; 25 mg/kg): 180 SUV min
AUC0–60 min whole blood ([5]; 25 mg/kg): 63 SUV min
rate constant for elimination of radio-metabolites from plasma (k−1) [8]: 0.020 ± 0.003 min⁻¹
decrease of kidney cortex SUV ([9]; mice, 5 min after i.v. α-CCA-Na 25 mg/kg given 20 min after tracer): 66%
kidney cortex SUV ([9]; mouse, in vivo): 1.41 ± 0.36
displacement of [18F]FACH [6]: 8%
BPND = k3/k4 (2-TCM) [10]: 12.96±5.40 1/1
parent fraction of [18F]FACH in kidney cortex [11]: 17.0%
specifically bound radiotracer displaced [12]: around 50%
selectivity for MCT1 (MCT1/4) compared to the other subtypes [3]: 10 fold
